In brackets after ≈: the same amount, converted by molar mass.
Assays:
Format in all cases: functional
[1] = system: Mycobacterium tuberculosis; assay: Antitubercular activity against Mycobacterium tuberculosis H37Rv after 10 days by tube dilution method; details: 240 h
[2] = system: Mycobacterium tuberculosis; assay: Antimycobacterial activity against human sensitive Mycobacterium tuberculosis measured after six weeks
[3] = system: Mycobacterium tuberculosis; assay: Antimycobacterial activity against Bovin sensitive Mycobacterium tuberculosis measured after six weeks
[4] = system: Mycobacterium tuberculosis; assay: Antitubercular activity against Mycobacterium tuberculosis H37Rv
[5] = system: Mycobacterium tuberculosis; assay: Antimycobacterial activity against Mycobacterium tuberculosis H37Rv ATCC 27294 at < 0.1 ug/mL by microplate alamar blue assay
[6] = system: Mycobacterium tuberculosis; assay: Antimycobacterial activity against Mycobacterium tuberculosis H37Rv after 10 to 12 days by serial dilution method
Mycobacterium avium = assay: Antimycobacterial activity against Mycobacterium avium by serial dilution method
Mycobacterium kansasii = assay: Antimycobacterial activity against Mycobacterium kansasii by serial dilution method
Mycolicibacterium phlei = assay: Antimycobacterial activity against Mycobacterium phlei by serial dilution method
[7] = system: Mycolicibacterium smegmatis; assay: Antimycobacterial activity against Mycobacterium smegmatis ATCC 607 by serial dilution method
[8] = system: Mycobacterium intracellulare; assay: Antimycobacterial activity against Mycobacterium intracellulare by serial dilution method
[9] = system: Mycolicibacterium fortuitum; assay: Antimycobacterial activity against Mycobacterium fortuitum by serial dilution method
[10] = system: Mycobacterium tuberculosis; assay: Potency index, ratio of pyrazinamide MIC to compound MIC for Mycobacterium tuberculosis H37Rv
[11] = system: Mycobacterium tuberculosis; assay: Antimycobacterial activity against Mycobacterium tuberculosis H37Rv by NCCLS method
[12] = system: Mycobacterium tuberculosis; assay: Antimycobacterial activity against Mycobacterium tuberculosis H37Rv after 5 days by microplate alamar blue assay; details: 120 h
[13] = system: Mycobacterium tuberculosis; assay: Growth inhibition of Mycobacterium tuberculosis H37Rv ATCC 27294 measured after 5 to 8 days
[14] = system: Mycobacterium tuberculosis; assay: Antimycobacterial activity against Mycobacterium tuberculosis H37Rv ATCC 27294 measured after 5 to 8 days
[15] = system: Mycobacterium tuberculosis; assay: Antimycobacterial activity against Mycobacterium tuberculosis infected in C57BL/6 mouse assessed as colony forming units per lung at 25 mg/kg administered via gavage for 2 days measured last post dose (reference value: 6.53 +/- 0.16 log10CFU)
[16] = system: Mycobacterium tuberculosis; assay: Antimycobacterial activity against Mycobacterium tuberculosis clinical isolate 303 by broth dilution method
[17] = system: Mycobacterium tuberculosis; assay: Antimycobacterial activity against Mycobacterium tuberculosis Academia by serial dilution method
[18] = system: Mycobacterium tuberculosis; assay: Antimycobacterial activity against Mycobacterium tuberculosis clinical isolate 35829 by broth dilution method
[19] = system: Mycobacterium tuberculosis; assay: Antimycobacterial activity against Mycobacterium tuberculosis clinical isolate 1889 by broth dilution method
[20] = system: Mycobacterium tuberculosis; assay: Antimycobacterial activity against Mycobacterium tuberculosis H37Rv by serial dilution method

O=C(NNc1nc(Cl)nc(NNC(=O)c2ccncc2)n1)c1ccncc1
MIC [1]: 20 µg/mL (≈ 51.8 µM)

O=C(N/N=C1\C(=O)N(Cc2ccccc2)c2ccccc21)c1ccncc1
MIC [2]: 2.7 to 3.5 µg/mL (≈ 7.58 to 9.82 µM) | MIC [3]: 2.7 to 3.5 µg/mL (≈ 7.58 to 9.82 µM)

O=C(NN1C(=O)C(Cl)C1c1cc2ccccc2nc1Cl)c1ccncc1 (configuration not stated)
MIC [4]: 12.5 µg/mL

C[C@]12CC/C(=N\NC(=O)c3ccncc3)C=C1CC[C@@H]1[C@@H]2CC[C@]2(C)/C(=N/NC(=O)c3ccncc3)CC[C@@H]12
inhibition (INH) [5]: >95%

Cc1ccc2nc(Cl)c(C3C(Cl)C(=O)N3NC(=O)c3ccncc3)cc2c1 (configuration not stated)
MIC [4]: 12.5 µg/mL

C[C@]12CC[C@H]3[C@@](CC[C@@H]4[C@]3(C)CCC[C@@]4(C)C(=O)O)(C/C1=N/NC(=O)c1ccncc1)C2
MIC [6]: 10 to 20 µg/mL (≈ 22.9 to 45.7 µM)

C[C@]12CC[C@@H](O)C[C@@H]1CC[C@@H]1[C@@H]2CC[C@]2(C)/C(=N/NC(=O)c3ccncc3)CC[C@@H]12
MIC (Mycobacterium avium): 3.5 to 1000 µg/mL (≈ 8.55 to 2440 µM) | MIC (Mycobacterium kansasii): 3.5 to 1000 µg/mL (≈ 8.55 to 2440 µM) | MIC (Mycolicibacterium phlei): 3.5 to 1000 µg/mL (≈ 8.55 to 2440 µM) | MIC [7]: 3.5 to 1000 µg/mL (≈ 8.55 to 2440 µM) | MIC [8]: 3.5 to 1000 µg/mL (≈ 8.55 to 2440 µM) | MIC [9]: 3.5 to 1000 µg/mL (≈ 8.55 to 2440 µM)

Cc1c(C(=O)NNC(=O)c2ccncc2)nn(-c2ccc(Cl)cc2Cl)c1-c1ccc(Cl)cc1
Ratio [10]: 2 | MIC [11]: 12.5 µg/mL (≈ 25 µM)

COc1nc2ccc(Cl)cc2cc1C1C(Cl)C(=O)N1NC(=O)c1ccncc1 (configuration not stated)
MIC [4]: 3.12 to 6.25 µg/mL

COc1cc(C2SCC(=O)N2NC(=O)c2ccccc2)ccc1O (configuration not stated)
MIC [12]: 0.31 µg/mL (≈ 0.9 µM)

O=C(NNc1nc(Cl)nc(NC(=O)c2cnccn2)n1)c1ccncc1
MIC [1]: 20 µg/mL (≈ 53.8 µM)

CCn1cc(C(=O)O)c(=O)c2cc(F)c(N3CCN(CN4C(=O)/C(=N\NC(=O)c5ccncc5)c5ccccc54)CC3)cc21
growth inhibition (GI) [13]: 100% | MIC [14]: < 6.25 µg/mL

C=C1C[C@]23CC[C@@H]4[C@](C)(CCC[C@@]4(C)C(=O)O)[C@H]2CC[C@]1(O[C@@H]1O[C@H](CO)[C@@H](O)[C@H](O)[C@H]1O[C@@H]1O[C@H](CO)[C@@H](O)[C@H](O)[C@H]1O)C3
MIC [6]: 3.75 to 5 µg/mL (≈ 5.83 to 7.78 µM)

C=C1C[C@]23CC[C@@H]4[C@](C)(CCC[C@@]4(C)C(=O)NNc4cccnc4)[C@H]2CC[C@]1(O[C@@H]1O[C@H](COC(C)=O)[C@@H](OC(C)=O)[C@H](OC(C)=O)[C@H]1O[C@@H]1O[C@H](COC(C)=O)[C@@H](OC(C)=O)[C@H](OC(C)=O)[C@H]1O)C3
MIC [6]: 10 µg/mL (≈ 10.1 µM)

C[C@]12CC=CC[C@@H]1CC[C@@H]1[C@@H]2CC[C@]2(C)/C(=N/NC(=O)c3ccncc3)CC[C@@H]12
inhibition (INH) [5]: >95%

COc1ccc(/C=C2\SC(=O)N(CNNC(=O)c3ccncc3)C2=O)cc1
MIC [4]: 50 to 100 µg/mL

COc1nc2ccc(C)cc2cc1C1C(Cl)C(=O)N1NC(=O)c1ccncc1 (configuration not stated)
MIC [4]: 3.12 to 6.25 µg/mL

CC[C@@H](CO)NCCN[C@@H](CC)CO [ETHAMBUTOL]
MIC [11]: 3.25 µg/mL (≈ 15.9 µM)

COc1c(N2CCNC(C)C2)c(F)cc2c(=O)c(C(=O)O)cn(C3CC3)c12 (configuration not stated) [GATIFLOXACIN]
MIC [4]: 3.12 µg/mL

NNC(=O)c1ccncc1 [ISONIAZID]
MIC [2]: 1.4 µg/mL (≈ 10.2 µM) | growth inhibition (GI) [13]: 95% | Activity [15]: 5.34 log10CFU | MIC [4]: 1.45 µM | MIC [11]: 0.05 µg/mL (≈ 0.365 µM) | MIC [16]: 4 to 8 µg/mL (≈ 29.2 to 58.3 µM) | MIC [17]: 0.015 to 0.06 µg/mL (≈ 0.109 to 0.438 µM) | MIC [3]: 1.4 µg/mL (≈ 10.2 µM) | MIC [6]: 0.1 µg/mL (≈ 0.729 µM) | MIC [12]: 0.2 µg/mL (≈ 1.46 µM) | MIC [18]: 4 to 8 µg/mL (≈ 29.2 to 58.3 µM) | MIC [19]: 4 to 8 µg/mL (≈ 29.2 to 58.3 µM) | MIC [14]: 0.025 to 0.05 µg/mL (≈ 0.182 to 0.365 µM) | MIC [20]: 0.015 to 0.06 µg/mL (≈ 0.109 to 0.438 µM)

NC(=O)c1cnccn1 [PYRAZINAMIDE]
MIC [11]: 50 µg/mL (≈ 406 µM) | MIC [6]: 20 µg/mL (≈ 162 µM)

CO[C@H]1/C=C/O[C@@]2(C)Oc3c(C)c(O)c4c(O)c(c(/C=N/N5CCN(C)CC5)c(O)c4c3C2=O)NC(=O)/C(C)=C\C=C\[C@H](C)[C@H](O)[C@@H](C)[C@@H](O)[C@@H](C)[C@H](OC(C)=O)[C@@H]1C [RIFAMPIN]
growth inhibition (GI) [13]: 86% | MIC [11]: 0.1 µg/mL (≈ 0.122 µM) | MIC [12]: 1 µg/mL (≈ 1.22 µM) | MIC [14]: 0.25 µg/mL (≈ 0.304 µM)

Reference: ChEMBL document CHEMBL4052616, “Isoniazid derivatives and their anti-tubercular activity” (Eur J Med Chem, 2017)
